Tested on in the first data set: not given
Assay: not given
Settings: not given
Compound `COc1ccc(-c2cc(-c3ccc(Cl)cc3)nc(SC(C)C)n2)cc1OC` [Compound 26, 4-(4-Chlorophenyl)-2-(isopropylthio)-6-(3,4-dimethoxyphenyl)pyrimidine] displayed a melting point of 233 to 253 °C.
`C=CCSc1nc(-c2ccc(Cl)cc2)cc(-c2ccc(OC)c(OC)c2)n1` [Compound 27, 2-(Allylthio)-4-(4-chlorophenyl)-6-(3,4-dimethoxyphenyl)pyrimidine] displayed a melting point of 244 to 246 °C.

For another data set, the system named is HT-29. Put plainly: Antiproliferative assay (MTT). Format: cell-based. To be noted: Homo sapiens, HT-29 (colon), read-out: Antiproliferative activity IC50 ± SEM, HT-29. A digest of the protocol:
(§1)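 MTT assay on tumour cell lines, compound in 0.1% DMSO final, 96 h at 37 °C. MTT at 0.4 mg/mL for 3 h, then DMSO solubilisation and absorbance at 540 nm. IC50 from dose-response, at least two independent runs in triplicate.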
As for `COc1ccc(-c2cc(-c3ccc(Cl)cc3)nc(SC(C)C)n2)cc1OC` [Compound 26, 4-(4-Chlorophenyl)-2-(isopropylthio)-6-(3,4-dimethoxyphenyl)pyrimidine], the 50% inhibitory concentration (IC50) was 42 ± 3 nM.
On the same count and under the same terms, in the case of `C=CCSc1nc(-c2ccc(Cl)cc2)cc(-c2ccc(OC)c(OC)c2)n1` [Compound 27, 2-(Allylthio)-4-(4-chlorophenyl)-6-(3,4-dimethoxyphenyl)pyrimidine] it was 60 ± 6 nM.

The test system of a further data set is MCF-7. Put plainly: Antiproliferative assay (MTT). Format: cell-based. To be noted: Homo sapiens, MCF7, MCF-7 (breast), read-out: Antiproliferative activity IC50 ± SEM, MCF-7. A digest of the protocol: as §1
`COc1ccc(-c2cc(-c3ccc(Cl)cc3)nc(SC(C)C)n2)cc1OC` [Compound 26, 4-(4-Chlorophenyl)-2-(isopropylthio)-6-(3,4-dimethoxyphenyl)pyrimidine]: the IC50 came to 42 ± 3 nM.
As for `C=CCSc1nc(-c2ccc(Cl)cc2)cc(-c2ccc(OC)c(OC)c2)n1` [Compound 27, 2-(Allylthio)-4-(4-chlorophenyl)-6-(3,4-dimethoxyphenyl)pyrimidine], the IC50 worked out at 60 ± 6 nM.

For the next data set, the system named is Panc-1. Put plainly: Antiproliferative assay (MTT). Format: cell-based. Conditions: Homo sapiens, Panc-1 (pancreatic), read-out: Antiproliferative activity IC50 ± SEM, Panc-1. Put shortly: as §1
As for `COc1ccc(-c2cc(-c3ccc(Cl)cc3)nc(SC(C)C)n2)cc1OC` [Compound 26, 4-(4-Chlorophenyl)-2-(isopropylthio)-6-(3,4-dimethoxyphenyl)pyrimidine], the IC50 was determined as 40 ± 3 nM.
Still for that read-out and setting: as for `C=CCSc1nc(-c2ccc(Cl)cc2)cc(-c2ccc(OC)c(OC)c2)n1` [Compound 27, 2-(Allylthio)-4-(4-chlorophenyl)-6-(3,4-dimethoxyphenyl)pyrimidine], the figure is 58 ± 5 nM.

For a further data set, the system named is A-549. Put plainly: Antiproliferative assay (MTT). Format: cell-based. Conditions: Homo sapiens, A549, A-549 (lung), read-out: Antiproliferative activity IC50 ± SEM, A-549. A digest of the protocol:
as §1
Regarding `COc1ccc(-c2cc(-c3ccc(Cl)cc3)nc(SC(C)C)n2)cc1OC` [Compound 26, 4-(4-Chlorophenyl)-2-(isopropylthio)-6-(3,4-dimethoxyphenyl)pyrimidine], the IC50 worked out at 40 ± 3 nM.
For `C=CCSc1nc(-c2ccc(Cl)cc2)cc(-c2ccc(OC)c(OC)c2)n1` [Compound 27, 2-(Allylthio)-4-(4-chlorophenyl)-6-(3,4-dimethoxyphenyl)pyrimidine], the 50% inhibitory concentration (IC50) amounted to 56 ± 5 nM.

Tested on in another data set: not listed separately
The data set can be described thus: Cell viability assay (MTT) on normal cells. Format: cell-based. Conditions: human, MCF-10A normal mammary gland epithelial cells, 4 days incubation.
Turning to `COc1ccc(-c2cc(-c3ccc(Cl)cc3)nc(SC(C)C)n2)cc1OC` [Compound 26, 4-(4-Chlorophenyl)-2-(isopropylthio)-6-(3,4-dimethoxyphenyl)pyrimidine], the viability at 4 days, 50 µM worked out at 90%.
The same measure, in the same setting: in the case of `C=CCSc1nc(-c2ccc(Cl)cc2)cc(-c2ccc(OC)c(OC)c2)n1` [Compound 27, 2-(Allylthio)-4-(4-chlorophenyl)-6-(3,4-dimethoxyphenyl)pyrimidine] it was 89%.

The test system of a further data set is MDA-MB-435. The data set can be described thus: NCI-60 single-dose screen. In kind it is cell-based. To be noted: Homo sapiens, single dose 10 µM, '-' = no inhibition, read-out: % Growth Inhibition. Here is the method:
(§2) The National Cancer Institute’s Developmental Therapeutic Program (www.dtp.nci.nih.gov) has tested compounds 9–29 (except compounds 21 and 22) against 60 cancer cell lines from nine types (leukemia, lung, colon, CNS, melanoma, ovarian, renal, prostate, and breast cancer) at a single dose (10 μM) ([El-Sherief et al., 2018]). […] The most sensitive cells included leukemia (SR, K-562, and MOLT-4), lung (NCI-H522, […], and EKVX), breast (MCF-7 and T-47D), colon (HCT-15 and HT-29), and ovarian (NCI/ADR-RES).
(§3) The National Cancer Institute’s Developmental Therapeutic Program (www.dtp.nci.nih.gov) evaluated compounds 9–29 (excluding 21 and 22) against 60 cancer cell lines from nine categories (leukemia, lung, colon, CNS, melanoma, ovarian, renal, prostate, and breast cancer) at a single dose (10 μM) ([El-Sherief et al., 2018]). See Supplementary Material A1 for more details.
On to `COc1ccc(-c2cc(-c3ccc(Cl)cc3)nc(SC(C)C)n2)cc1OC` [Compound 26, 4-(4-Chlorophenyl)-2-(isopropylthio)-6-(3,4-dimethoxyphenyl)pyrimidine], for which the inhibition at 10 µM was determined as 1.25%.
In the case of `C=CCSc1nc(-c2ccc(Cl)cc2)cc(-c2ccc(OC)c(OC)c2)n1` [Compound 27, 2-(Allylthio)-4-(4-chlorophenyl)-6-(3,4-dimethoxyphenyl)pyrimidine], the inhibition at 10 µM was found to be 6.35%.

The subject of another data set is HCT-116. The data set can be described thus: NCI-60 single-dose screen. Format: cell-based. Conditions: Homo sapiens, single dose 10 µM, '-' = no inhibition, read-out: % Growth Inhibition. The protocol:
as §2, §3
Consider `COc1ccc(-c2cc(-c3ccc(Cl)cc3)nc(SC(C)C)n2)cc1OC` [Compound 26, 4-(4-Chlorophenyl)-2-(isopropylthio)-6-(3,4-dimethoxyphenyl)pyrimidine], for which the inhibition at 10 µM turned out to be 2.84%.
Still for that read-out and setting: as for `C=CCSc1nc(-c2ccc(Cl)cc2)cc(-c2ccc(OC)c(OC)c2)n1` [Compound 27, 2-(Allylthio)-4-(4-chlorophenyl)-6-(3,4-dimethoxyphenyl)pyrimidine], the figure is 21.8%.

Another data set has as its system SW-620. Put plainly: NCI-60 single-dose screen. Format: cell-based. To be noted: Homo sapiens, single dose 10 µM, '-' = no inhibition, read-out: % Growth Inhibition. The protocol: as §2, §3
For the compound `COc1ccc(-c2cc(-c3ccc(Cl)cc3)nc(SC(C)C)n2)cc1OC` [Compound 26, 4-(4-Chlorophenyl)-2-(isopropylthio)-6-(3,4-dimethoxyphenyl)pyrimidine], the inhibition at 10 µM came to 2.64%.
Same read-out and setting: as for `C=CCSc1nc(-c2ccc(Cl)cc2)cc(-c2ccc(OC)c(OC)c2)n1` [Compound 27, 2-(Allylthio)-4-(4-chlorophenyl)-6-(3,4-dimethoxyphenyl)pyrimidine], the figure is 1.7%.

In the next data set the test system is OVCAR-3. Put plainly: NCI-60 single-dose screen. In kind it is cell-based. To be noted: Homo sapiens, single dose 10 µM, '-' = no inhibition, read-out: % Growth Inhibition. The protocol:
as §2, §3
Take `COc1ccc(-c2cc(-c3ccc(Cl)cc3)nc(SC(C)C)n2)cc1OC` [Compound 26, 4-(4-Chlorophenyl)-2-(isopropylthio)-6-(3,4-dimethoxyphenyl)pyrimidine]: the inhibition at 10 µM is less than 0%.
Same read-out and setting: in the case of `C=CCSc1nc(-c2ccc(Cl)cc2)cc(-c2ccc(OC)c(OC)c2)n1` [Compound 27, 2-(Allylthio)-4-(4-chlorophenyl)-6-(3,4-dimethoxyphenyl)pyrimidine] it was less than 0%.

A further data set relates to HOP-92. Put plainly: NCI-60 single-dose screen. Format: cell-based. To be noted: Homo sapiens, single dose 10 µM, '-' = no inhibition, read-out: % Growth Inhibition. Here is the method: as §2, §3
Take `COc1ccc(-c2cc(-c3ccc(Cl)cc3)nc(SC(C)C)n2)cc1OC` [Compound 26, 4-(4-Chlorophenyl)-2-(isopropylthio)-6-(3,4-dimethoxyphenyl)pyrimidine]: the inhibition at 10 µM was less than 0%.
Still for that read-out and setting: in the case of `C=CCSc1nc(-c2ccc(Cl)cc2)cc(-c2ccc(OC)c(OC)c2)n1` [Compound 27, 2-(Allylthio)-4-(4-chlorophenyl)-6-(3,4-dimethoxyphenyl)pyrimidine] it was 10.6%.

The subject of the next data set is SN12C. Put plainly: NCI-60 single-dose screen. Format: cell-based. Conditions: Homo sapiens, single dose 10 µM, '-' = no inhibition, read-out: % Growth Inhibition. The protocol: as §2, §3
On to `COc1ccc(-c2cc(-c3ccc(Cl)cc3)nc(SC(C)C)n2)cc1OC` [Compound 26, 4-(4-Chlorophenyl)-2-(isopropylthio)-6-(3,4-dimethoxyphenyl)pyrimidine], for which the inhibition at 10 µM came to 8.05%.
On the same count and under the same terms, in the case of `C=CCSc1nc(-c2ccc(Cl)cc2)cc(-c2ccc(OC)c(OC)c2)n1` [Compound 27, 2-(Allylthio)-4-(4-chlorophenyl)-6-(3,4-dimethoxyphenyl)pyrimidine] it was 14.3%.

Another data set concerns DU-145. The data set can be described thus: NCI-60 single-dose screen. Conditions: Homo sapiens, single dose 10 µM, '-' = no inhibition, read-out: % Growth Inhibition. In kind it is cell-based. The protocol: as §2, §3
For `COc1ccc(-c2cc(-c3ccc(Cl)cc3)nc(SC(C)C)n2)cc1OC` [Compound 26, 4-(4-Chlorophenyl)-2-(isopropylthio)-6-(3,4-dimethoxyphenyl)pyrimidine], the inhibition at 10 µM was less than 0%.
The same measure, in the same setting: in the case of `C=CCSc1nc(-c2ccc(Cl)cc2)cc(-c2ccc(OC)c(OC)c2)n1` [Compound 27, 2-(Allylthio)-4-(4-chlorophenyl)-6-(3,4-dimethoxyphenyl)pyrimidine] it was 2.02%.

The next data set has as its system HS 578T. The data set can be described thus: NCI-60 single-dose screen. Format: cell-based. Conditions: Homo sapiens, single dose 10 µM, '-' = no inhibition, read-out: % Growth Inhibition. The protocol:
as §2, §3
For the compound `COc1ccc(-c2cc(-c3ccc(Cl)cc3)nc(SC(C)C)n2)cc1OC` [Compound 26, 4-(4-Chlorophenyl)-2-(isopropylthio)-6-(3,4-dimethoxyphenyl)pyrimidine], the inhibition at 10 µM is less than 0%.
With `C=CCSc1nc(-c2ccc(Cl)cc2)cc(-c2ccc(OC)c(OC)c2)n1` [Compound 27, 2-(Allylthio)-4-(4-chlorophenyl)-6-(3,4-dimethoxyphenyl)pyrimidine], the inhibition at 10 µM was less than 0%.

The next data set relates to CAKI-1. Put plainly: NCI-60 single-dose screen. In kind it is cell-based. Conditions: Homo sapiens, single dose 10 µM, '-' = no inhibition, read-out: % Growth Inhibition. The protocol: as §2, §3
As for `COc1ccc(-c2cc(-c3ccc(Cl)cc3)nc(SC(C)C)n2)cc1OC` [Compound 26, 4-(4-Chlorophenyl)-2-(isopropylthio)-6-(3,4-dimethoxyphenyl)pyrimidine], the inhibition at 10 µM came out at 9.22%.
Same read-out and setting: in the case of `C=CCSc1nc(-c2ccc(Cl)cc2)cc(-c2ccc(OC)c(OC)c2)n1` [Compound 27, 2-(Allylthio)-4-(4-chlorophenyl)-6-(3,4-dimethoxyphenyl)pyrimidine] it was 13.1%.

The test system of the next data set is SF-295. Put plainly: NCI-60 single-dose screen. Conditions: Homo sapiens, single dose 10 µM, '-' = no inhibition, read-out: % Growth Inhibition. Format: cell-based. The protocol:
as §2, §3
As to `COc1ccc(-c2cc(-c3ccc(Cl)cc3)nc(SC(C)C)n2)cc1OC` [Compound 26, 4-(4-Chlorophenyl)-2-(isopropylthio)-6-(3,4-dimethoxyphenyl)pyrimidine], the inhibition at 10 µM is less than 0%.
Same read-out and setting: in the case of `C=CCSc1nc(-c2ccc(Cl)cc2)cc(-c2ccc(OC)c(OC)c2)n1` [Compound 27, 2-(Allylthio)-4-(4-chlorophenyl)-6-(3,4-dimethoxyphenyl)pyrimidine] it was 3%.

In general, melting point refers to the temperature of the solid-liquid transition. In general, IC50 refers to the concentration at which inhibition is half-maximal. For orientation: viability means a read-out of living cells in per cent, often relative to untreated cells. As usually defined, the inhibition is the share of the control response that was lost under treatment.

(Values after publication PMC11576293, “New series of 4,6-diaryl pyrimidines: facile synthesis and antiproliferative activity as dual EGFR/VEGFR-2 inhibitors” (Frontiers in Chemistry, 2024).)
